One data set concerns HCT116 cells. Description: Cell proliferation assay. Format: cell-based. Conditions: Homo sapiens, HCT-116, 72 h, read-out: Hct-116 (anti-proliferation IC50). The protocol: HCT116 cells (5000 cells/well) in 80 μL McCoy's 5A medium containing 10% v/v FBS, 1% v/v penicillin/streptomycin and 1% v/v L-glutamine were incubated in 96-well plates with compounds at various concentrations for 72 h at 37° C. in a 5% CO2 atmosphere. The compound dilutions were made in 100% DMSO followed by parallel dilutions in media. The final concentration of DMSO in each well was 0.05%. After 72 h, 20 μL of Cell titer 96 aqueous one solution (Promega Corporation, Madison, Wis.) were added to the cells and the plate was incubated at 37° C. for another 4 h. The absorbance at 490 nm was then recorded on a 96-well plate reader (Spectramax M2, Molecular Devices, Sunnyvale, Calif.). Data analysis was performed in Microsoft Excel (Microsoft Corp, Redmond, Wash.).

The nature of data set [1]: Brain penetration studies.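 Further: compound levels in brain and plasma quantified by LC/MS/MS, sampled from pre-dose up to 4 h after dosing, three mice per dose and time point.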 The format is in vivo. The following applies: C57/BL6/J, mouse, brain and plasma; mice, s.c. 5 or 50 mg/kg or i.v. 5 mg/kg; read-out: BPR (brain/plasma ratio, Cmax(brain)/Cmax(plasma)).
Description: Test compounds were prepared at either 0.5 mg/ml or 5 mg/ml in 30% hydroxypropyl-β-cyclodextrin, 100 mM sodium acetate pH 5.5, 5% DMSO. C57/BL6/J mice were dosed s.c. at 5 mg/kg or 50 mg/kg, or i.v. at 5 mg/kg. Animals were euthanized at pre-dose, 5, 15, 30 min, 1, 2 and 4 hours post-dose and plasma and brain obtained. Three animals per dose per time points were used. The levels of compound in the plasma and brain were determined by standard LC/MS/MS methods. Brain/plasma ratio (BPR) was calculated as the ratio of the Cmax(brain)/Cmax(plasma).
Data set [2] concerns GM 15850 (lymphoblastoid cells line) cells. Description: In-cell deacetylase inhibition assay (DAC assay). The format is cell-based. The following applies: Homo sapiens, GM15850; GM 15850 cells, 4 h incubation; read-out: 850 DAC (in-cell deacetylase inhibition IC50). The procedure:
Compound dilutions were made in 100% DMSO followed by parallel dilution in media with 2% DMSO. 10 μl of the compound dilutions were added to the cells to achieve the desired concentrations. The final concentration of DMSO in each well was 0.2%. The cells were incubated for 4 h at 37° C. with 5% CO2. After incubation, the cells were centrifuged down and the supernatant was removed. […] The reaction was stopped after 30 min incubation by addition of 50 μL developer (6 mg/mL trypsin in HDAC assay buffer). The reaction was allowed to develop for 30 min at room temperature and the fluorescence signal was detected using a fluorometer (Spectramax M2, Molecular Devices, Sunnyvale, Calif.) with excitation and emission wavelengths of 360 nm and 470 nm respectively. The data was fitted to a sigmoidal dose response equation with variable slope in GraphPad Prism 5.0 (GraphPad Software, La Jolla, Calif.) to determine IC50. Bottom and top of the curve were fixed to the average fluorescence response of control wells with no cells and cells but no compound respectively.

The next data set concerns C57BL/6J male mice. Description: Long term memory for object recognition. Format: in vivo. Conditions: s.c. 3, 10, 30 mg/kg. The protocol: C57BL/6J male mice were handled 1-2 min for 5 days and were habituated to the experimental apparatus 5 min a day for 4 consecutive days in the absence of objects. […] 24-h later mice were tested for memory retention (5 min) using the object recognition memory task (ORM), in which a familiar object was replaced with a novel one. All training and testing trials were videotaped and analyzed by individuals blind to the treatment condition and the genotype of subjects. A mouse was scored as exploring an object when its head was oriented toward the object within a distance of 1 cm or when the nose was touching the object. The relative exploration time was recorded and expressed by a discrimination index [DI=(tnovel−tfamiliar)/(tnovel+tfamiliar)×100].

Consider `Nc1ccccc1NC(=O)/C=C/c1cnn(CCCCc2ccccc2)c1` [D9], for which the IC50 with HCT116 cells fell in the range of 5 to 10 µM; in data set [2], 1 to 5 µM. The Kp in data set [1] was in the range of 0.5 to 1.

`Cc1ncc(/C=C/C(=O)Nc2ccccc2N)s1` [A3]: the IC50 in data set [2] was over 20 µM.

Turning to `Cc1cccc(Cn2cc(/C=C/C(=O)Nc3ccccc3N)cn2)n1` [D6], the IC50 is over 20 µM in the data set on HCT116 cells and 10 to 20 µM in data set [2]. Further, the Kp in data set [1] is under 0.1.

Take `Nc1ccccc1NC(=O)/C=C/c1cnn(-c2ccccc2)c1` [A11]: the Kp in data set [1] was over 1.

Consider `CCn1cc(/C=C/C(=O)Nc2ccccc2N)cn1` [C1], for which the Kp in data set [1] was in the range of 0.5 to 1. The IC50 in data set [2] is over 20 µM.

With `Nc1ccccc1NC(=O)c1ccc(C=C2CCN(C(=O)OCc3ccccc3)CC2)cc1` [F1], in data set [1], the Kp was under 0.1. Besides, the IC50 in data set [2] is over 20 µM.

As to `Nc1ccccc1NC(=O)/C=C/c1cnn(CCc2ccccc2)c1` [D7], the IC50 with HCT116 cells was under 5 µM; in data set [2] it was 5 to 10 µM. The Kp in data set [1] fell in the range of 0.5 to 1.

With `Cc1nn(C/C=C/c2ccccc2)c(C)c1/C=C/C(=O)Nc1ccccc1N` [G2, (E)-N-(2-aminophenyl)-3-(1-cinnamyl-3,5-dimethyl-1H-pyrazol-4-yl)acrylamide], in the data set with HCT116 cells, the IC50 is over 20 µM.

With `Nc1ccccc1NC(=O)c1ccc(C=C2CN(Cc3ccc4cc[nH]c4c3)C2)c(Cl)c1` [F5, 4-((1-((1H-Indol-6-yl)methyl)azetidin-3-ylidene)methyl)-N-(2-aminophenyl)-3-chlorobenzamide], in data set [2], the IC50 was 5 to 10 µM.

Regarding `Nc1ccccc1NC(=O)c1ccc(CC2CN(Cc3ccc4cc[nH]c4c3)C2)cc1` [F4], the IC50 in the data set on HCT116 cells is under 5 µM; in data set [2], 1 to 5 µM. Also, the Kp in data set [1] was 0.5 to 1.

As for `Cc1ccc(C(=O)NCCCCCC(=O)Nc2ccc(F)cc2N)cc1` [RGFP 136, reference compound], in the data set with C57BL/6J male mice, the “dose dependence of the effect on long-term memory” value is given as “Dose dependent effects”.

`Nc1ccccc1NC(=O)c1ccc(C=C2CN(Cc3cccnc3)C2)c(Cl)c1` [F6]: the IC50 in data set [2] was in the range of 10 to 20 µM.

Take `Nc1ccccc1NC(=O)/C=C/c1cnn(CCOc2ccc(C(F)(F)F)cc2)c1` [B4]: the Kp in data set [1] was in the range of 0.2 to 0.5. Besides, the IC50 in data set [2] fell in the range of 10 to 20 µM.

Turning to `Nc1ccccc1NC(=O)/C=C/c1cnn(CCOc2ccccc2)c1` [D3, (E)-N-(2-aminophenyl)-3-(1-(2-phenoxyethyl)-1H-pyrazol-4-yl)acrylamide], the IC50 in the data set with HCT116 cells was under 5 µM; in data set [2] it was 1 to 5 µM. The Kp in data set [1] is 0.2 to 0.5.

As to `Nc1ccccc1NC(=O)/C=C/c1cnn(CCOCc2ccccc2)c1` [D14], in data set [2], the IC50 lay within 5 to 10 µM.

For the molecule `Cc1cc(/C=C/C(=O)Nc2ccccc2N)on1` [A5], the Kp in data set [1] is 0.2 to 0.5.

Consider `Cn1cnc(/C=C/C(=O)Nc2ccccc2N)c1` [A12], for which the IC50 in data set [2] was over 20 µM.

In the case of `Nc1ccccc1NC(=O)/C=C/c1cnn(CC2CC2)c1` [B1], the IC50 in data set [2] was 10 to 20 µM.

As for `CN1CCC(Cn2cc(/C=C/C(=O)Nc3ccccc3N)cn2)CC1` [G1, (E)-N-(2-aminophenyl)-3-(1-((1-methylpiperidin-4-yl)methyl)-1H-pyrazol-4-yl)acrylamide], the IC50 in the data set on HCT116 cells is over 20 µM.

As for `Nc1ccccc1NC(=O)/C=C/c1csc(CC=Cc2ccccc2)n1` [E2, (E)-N-(2-aminophenyl)-3-(2-cinnamylthiazol-4-yl)acrylamide], the IC50 is over 20 µM in the data set with HCT116 cells and 10 to 20 µM in data set [2]. For the same molecule, in data set [1], the Kp is over 1.

As to `Nc1ccccc1NC(=O)/C=C/c1cnn(CCOc2ccc(F)cc2)c1` [B6], the IC50 in data set [2] was in the range of 5 to 10 µM.

For `Nc1ccccc1NC(=O)/C=C/c1cnn(CCCOc2ccccc2)c1` [D15], the IC50 in data set [2] was 1 to 5 µM.

For the molecule `Cn1cc(/C=C/C(=O)Nc2ccccc2N)cn1` [A2], the IC50 with HCT116 cells was over 20 µM; in data set [2], 10 to 20 µM. Moreover, the Kp in data set [1] was 0.5 to 1.

For the molecule `Nc1cc(F)ccc1NC(=O)/C=C/c1cnn(CCOc2ccccc2)c1` [D16], in data set [2], the IC50 was 10 to 20 µM.

Turning to `Cn1ccc(/C=C/C(=O)Nc2ccccc2N)n1` [A7], in data set [1], the Kp lay within 0.5 to 1. Besides, the IC50 in data set [2] was over 20 µM.

As to `Nc1cc(F)ccc1NC(=O)/C=C/c1cnn(C/C=C/c2ccccc2)c1` [D2, (E)-N-(2-amino-4-fluorophenyl)-3-(1-cinnamyl-1H-pyrazol-4-yl)acrylamide], the IC50 (in the data set with HCT116 cells; in data set [2]) was over 20 µM throughout. Moreover, in data set [1], the Kp was 0.2 to 0.5. In addition, the “dose dependence of the effect on long-term memory” value in the data set with C57BL/6J male mice is “no effect of dose”.

Regarding `CN(CCCn1cc(/C=C/C(=O)Nc2ccccc2N)cn1)c1ccccc1` [D12], the Kp in data set [1] lay in the range of 0.5 to 1. In addition, the IC50 in data set [2] is 1 to 5 µM.

With `Nc1ccccc1NC(=O)/C=C/c1cnc2ccccn12` [A6, (E)-N-(2-aminophenyl)-3-(imidazo[1,2-a]pyridin-3-yl)acrylamide], the values for the IC50 (in the data set with HCT116 cells; in data set [2]) were 10 to 20 µM and over 20 µM, respectively. The Kp in data set [1] was in the range of 0.1 to 0.2.

Turning to `Nc1ccccc1NC(=O)/C=C/c1cnn(Cc2ccccc2)c1` [D4], the IC50 with HCT116 cells was over 20 µM; in data set [2], 5 to 10 µM. In data set [1], the Kp was 0.2 to 0.5.

In the case of `Nc1ccccc1NC(=O)/C=C/c1cn2ccnc2s1` [A10], the Kp in data set [1] is 0.2 to 0.5. Moreover, the IC50 in data set [2] was in the range of 10 to 20 µM.

Turning to `Nc1ccccc1NC(=O)/C=C/c1cnn(Cc2ccc(F)cc2)c1` [D5], the IC50 in the data set on HCT116 cells is over 20 µM; in data set [2], 5 to 10 µM. For the same molecule, in data set [1], the Kp was in the range of 0.1 to 0.2.

Turning to `Nc1ccccc1NC(=O)c1ccc(C=C2CN(Cc3ccc4cc[nH]c4c3)C2)cc1` [F3], the IC50 is under 5 µM with HCT116 cells and 1 to 5 µM in data set [2]. For the same molecule, in data set [1], the Kp lay in the range of 0.2 to 0.5.

For `Nc1ccccc1NC(=O)/C=C/c1cnn(CCc2c[nH]c3ccccc23)c1` [D13], the Kp in data set [1] was under 0.1. In addition, the IC50 in data set [2] was in the range of 1 to 5 µM.

As to `Nc1ccccc1NC(=O)c1ccc(C=C2CCN(Cc3cccnc3)CC2)cc1` [F2], the IC50 in the data set with HCT116 cells was under 5 µM; in data set [2], 10 to 20 µM. For the same molecule, the Kp in data set [1] is over 1.

With `Nc1ccccc1NC(=O)/C=C/c1cnn(C/C=C/c2ccc(F)cc2)c1` [B2], the IC50 in data set [2] lay within 5 to 10 µM.

On to `Nc1ccccc1NC(=O)/C=C/c1cnn(CCCc2ccccc2)c1` [D8], for which the IC50 is under 5 µM in the data set with HCT116 cells and 1 to 5 µM in data set [2]. In addition, in data set [1], the Kp was in the range of 0.2 to 0.5.

On to `Nc1ccccc1NC(=O)/C=C/c1cnn(CC(F)(F)c2ccccc2)c1` [D10], for which the IC50 is over 20 µM in the data set with HCT116 cells and 5 to 10 µM in data set [2]. In addition, the Kp in data set [1] fell in the range of 0.5 to 1.

`CCOCc1cn2cc(/C=C/C(=O)Nc3ccccc3N)sc2n1` [E1, (E)-N-(2-aminophenyl)-3-(6-(ethoxymethyl)imidazo[2,1-b]thiazol-2-yl)acrylamide]: the IC50 in data set [2] is over 20 µM.

As for `Nc1ccccc1NC(=O)/C=C/c1cn2ccccc2n1` [A9], in data set [2], the IC50 was over 20 µM.

On to `Nc1ccccc1NC(=O)/C=C/c1cc2ccccn2n1` [A8], for which the Kp in data set [1] is 0.5 to 1. Also, in data set [2], the IC50 was 10 to 20 µM.

Regarding `Cn1cc(/C=C/C(=O)Nc2cc(F)ccc2N)cn1` [C3], in data set [2], the IC50 is over 20 µM.

Regarding `Cc1nc(/C=C/C(=O)Nc2ccccc2N)cs1` [A1], in data set [1], the Kp lay in the range of 0.5 to 1. In addition, the IC50 in data set [2] is over 20 µM.

In the case of `Nc1ccccc1NC(=O)/C=C/c1cnn(CC/C=C/c2ccccc2)c1` [D11], the Kp in data set [1] was over 1. Further, the IC50 in data set [2] is 1 to 5 µM.

On to `Nc1ccccc1NC(=O)/C=C/c1cnn(CCOc2cc(F)cc(Cl)c2)c1` [B5, (E)-N-(2-aminophenyl)-3-(1-(2-(3-chloro-5-fluorophenoxy)ethyl)-1H-pyrazol-4-yl)acrylamide], for which the Kp in data set [1] is 0.2 to 0.5. Besides, the IC50 in data set [2] lay within 5 to 10 µM.

Turning to `Nc1ccccc1NC(=O)/C=C/c1cnn(CCOc2cc(F)cc(F)c2)c1` [B3, (E)-N-(2-aminophenyl)-3-(1-(2-(3,5-difluorophenoxy)ethyl)-1H-pyrazol-4-yl)acrylamide], the Kp in data set [1] lay within 0.2 to 0.5. For the same molecule, the IC50 in data set [2] was 1 to 5 µM.
